The first assay deals with T1, recombinant human GST-SYK (Homo sapiens, UniProt P43405).
T1 construct: purchased Carna Biosciences 08-176
Briefly: Homogeneous Time-Resolved Fluorescence (HTRF) assay for the recombinant human Syk enzyme. To be noted: GST-hSYK 5 pM, ATP 25 μM, 10-dose titration 10 μM to 0.508 nM; read-out: IC50. Type of assay: biochemical. An outline of the steps:
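GST-hSYK fusion phosphorylates a peptide for 45 min at room temperature. Quenched with EDTA buffer containing 2 nM Eu-anti-phosphotyrosine antibody and 70 nM SA-APC. HTRF signal read after 30 min.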
For orientation: TR-FRET usually uses a lanthanide donor and a delayed reading to cut background.
On to `Cc1ccc(Nc2cc(N[C@@H]3CCCC[C@@H]3N)cnc2C(N)=O)nc1C` [Example 1.6, 5-{[(1R,2S)-2-aminocyclohexyl]amino}-3-[(5,6-dimethylpyridin-2-yl)amino)pyridine-2-carboxamide], for which the IC50 (commonly the concentration that inhibits the measured activity by half) amounted to 0.53 nM.

`Cc1nc(C)c(Cl)c(Nc2cc(N[C@@H]3CCCC[C@@H]3N)cnc2C(N)=O)n1` [Example 1.126, 5-{[(1R,2S)-2-aminocyclohexyl]amino}-3-[(5-chloro-2,6-dimethylpyrimidin-4-yl)amino]pyridine-2-carboxamide]: the IC50 worked out at 1300 nM.

On to `Cc1cc(C)nc(Nc2cc(N)cnc2C(N)=O)c1` [Example 9, 5-amino-3-[(4,6-dimethylpyridin-2-yl)amino]pyridine-2-carboxamide], for which the IC50 came to 2900 nM.

For `Cc1cc(C)nc(Nc2cc(NC(C(N)=O)C(C)C)cnc2C(N)=O)c1` (centres unmarked) [Example 1.41, 5-[(1-carbamoyl-2-methylpropyl)amino]-3-[(4,6-dimethylpyridin-2-yl)amino]pyridine-2-carboxamide], the IC50 turned out to be 12 nM.

The assay is the same for the next values; noted with them: GST-hSYK 5 pM, ATP 25 μM, 10-dose titration 10 μM to 0.508 nM; read-out: rhSYK Activity (IC50 rating).
Consider `Cc1nc(Nc2cc(N[C@@H]3CCCC[C@@H]3N)cnc2C(N)=O)ccc1-c1ccc(C(O)C(F)F)cc1` (stereo partly drawn) [Example 3.8, 5-{[(1R,2S)-2-aminocyclohexyl]amino}-3-({5-[4-(2,2-difluoro-1-hydroxyethyl)phenyl]-6-methylpyridin-2-yl}amino)pyridine-2-carboxamide], for which the IC50 was under 10 nM.

Turning to `Cc1ccc(Nc2cc(N[C@@H]3CCCC[C@@H]3N)cnc2C(N)=O)nc1C` [Example 1.6, 5-{[(1R,2S)-2-aminocyclohexyl]amino}-3-[(5,6-dimethylpyridin-2-yl)amino)pyridine-2-carboxamide], the IC50 is under 10 nM.

For the compound `NC(=O)c1ncc(N[C@@H]2CCCC[C@@H]2N)cc1Nc1cccc(CN2CCNCC2)n1` [Example 8, 5-{[(1R,2S)-2-aminocyclohexyl]amino}-3-{[6-(piperazin-1-ylmethyl)pyridin-2-yl]amino}pyridine-2-carboxamide], the concentration for half-maximal inhibition (IC50) fell in the range of 100 to 1000 nM.

With `NC(=O)c1ncc(N[C@@H]2CCCC[C@@H]2N)cc1Nc1cccc(-c2ccc3c(c2)OCCO3)n1` [Example 1.16, 5-{[(1R,2S)-2-aminocyclohexyl]amino}-3-{[6-(2,3-dihydro-1,4-benzodioxin-6-yl)pyridin-2-yl]amino}pyridine-2-carboxamide], the 50% inhibitory concentration (IC50) is under 10 nM.

For the compound `Cc1cc(Cl)cc(Nc2cc(N[C@@H]3CCCC[C@@H]3N)cnc2C(N)=O)n1` [Example 1.12, 5-{[(1R,2S)-2-aminocyclohexyl]amino}-3-[(4-chloro-6-methylpyridin-2-yl)amino]pyridine-2-carboxamide], the IC50 was under 10 nM.

On to `NC(=O)c1ncc(N[C@H]2[C@@H](N)CCCC2(F)F)cc1Nc1cccc(C(F)(F)F)n1` [Example 1.106, 5-{[(1S,6S)-6-amino-2,2-difluorocyclohexyl]amino}-3-{[6-(trifluoromethyl)pyridin-2-yl]amino}pyridine-2-carboxamide], for which the IC50 was under 10 nM.

With `Cc1nc(Nc2cc(N[C@@H]3CCCC[C@@H]3N)cnc2C(N)=O)ccc1C(=O)O` [Example 16, 6-[(5-{[(1R,2S)-2-aminocyclohexyl]amino}-2-carbamoylpyridin-3-yl)amino]-2-methylpyridine-3-carboxylic acid], the concentration for half-maximal inhibition (IC50) was under 10 nM.

On to `Cc1nc(Nc2cc(N[C@@H]3CCCC[C@@H]3N)cnc2C(N)=O)ccc1-c1cncnc1` [Example 3.25, 5-{[(1R,2S)-2-aminocyclohexyl]amino}-3-[(6-methyl-5-pyrimidin-5-ylpyridin-2-yl)amino]pyridine-2-carboxamide], for which the IC50 is under 10 nM.

On to `CCc1cccc(Nc2cc(NC[C@@H](N)COC)cnc2C(N)=O)n1` [Example 1.100, 5-{[(2R)-2-amino-3-methoxypropyl]amino}-3-[(6-ethylpyridin-2-yl)amino]pyridine-2-carboxamide], for which the concentration for half-maximal inhibition (IC50) was under 10 nM.

Turning to `Cc1nc(Nc2cc(N[C@@H]3CCCC[C@@H]3N)cnc2C(N)=O)ccc1-c1ccc(-c2nccn2C)cc1` [Example 3.29, 5-{[(1R,2S)-2-aminocyclohexyl]amino}-3-({6-methyl-5-[4-(1-methyl-1H-imidazol-2-yl)phenyl]pyridin-2-yl}amino)pyridine-2-carboxamide], the IC50 is under 10 nM.

Consider `Cc1nc(Nc2cc(N[C@@H]3CCCC[C@@H]3N)cnc2C(N)=O)ccc1-c1cccc(C(=O)O)c1` [Example 3.6, 3-{6-[(5-{[(1R,2S)-2-aminocyclohexyl]amino}-2-carbamoylpyridin-3-yl)amino]-2-methylpyridin-3-yl}benzoic acid], for which the IC50 is under 10 nM.

Consider `NC(=O)c1ncc(N[C@@H]2CCCC[C@@H]2N)cc1Nc1ccn(-c2ccccn2)n1` [Example 1.81, 5-{[(1R,2S)-2-aminocyclohexyl]amino}-3-[(1-pyridin-2-yl-1H-pyrazol-3-yl)amino]pyridine-2-carboxamide], for which the IC50 was under 10 nM.

For the compound `Cc1nc(Nc2cc(N[C@@H]3CCCC[C@@H]3N)cnc2C(N)=O)ccc1-c1ccc2nnn(C)c2c1` [Example 3.9, 5-{[(1R,2S)-2-aminocyclohexyl]amino}-3-{[6-methyl-5-(1-methyl-1H-benzotriazol-6-yl)pyridin-2-yl]amino}pyridine-2-carboxamide], the IC50 was under 10 nM.

Take `Cc1cc(-n2ccnn2)cc(Nc2cc(N[C@@H]3CCCC[C@@H]3N)cnc2C(N)=O)n1` [Example 1.75, 5-{[(1R,2S)-2-aminocyclohexyl]amino}-3-{[6-methyl-4-(1H-1,2,3-triazol-1-yl)pyridin-2-yl]amino}pyridine-2-carboxamide]: the 50% inhibitory concentration (IC50) is under 10 nM.

Turning to `Cc1nc(Nc2cc(N[C@@H]3CCCC[C@@H]3N)cnc2C(N)=O)ccc1-n1nccn1` [Example 1.67, 5-{[(1R,2S)-2-aminocyclohexyl]amino}-3-{[6-methyl-5-(2H-1,2,3-triazol-2-yl)pyridin-2-yl]amino}pyridine-2-carboxamide], the IC50 was under 10 nM.

On to `Cc1nc(Nc2cc(N[C@@H]3CCCC[C@@H]3N)cnc2C(N)=O)ccc1-c1cccc(N2CCN(C)CC2)c1` [Example 3.14, 5-{[(1R,2S)-2-aminocyclohexyl]amino}-3-({6-methyl-5-[3-(4-methylpiperazin-1-yl)phenyl]pyridin-2-yl}amino)pyridine-2-carboxamide], for which the IC50 is under 10 nM.

As to `COc1cc(C)nc(Nc2cc(N[C@@H]3CCOC[C@@H]3N)cnc2C(N)=O)c1` [Example 1.131, 5-{[(3R,4R)-3-aminotetrahydro-2H-pyran-4-yl]amino}-3-[(4-methoxy-6-methylpyridin-2-yl)amino]pyridine-2-carboxamide], the IC50 was under 10 nM.

Consider `Cc1nc(Nc2cc(N[C@@H]3CCCC[C@@H]3N)cnc2C(N)=O)ccc1-c1cccc(-n2nccn2)c1` [Example 3.20, 5-{[(1R,2S)-2-aminocyclohexyl]amino}-3-({6-methyl-5-[3-(2H-1,2,3-triazol-2-yl)phenyl]pyridin-2-yl}amino)pyridine-2-carboxamide], for which the IC50 was under 10 nM.

As to `Cc1nc(C)c(Cl)c(Nc2cc(N[C@@H]3CCCC[C@@H]3N)cnc2C(N)=O)n1` [Example 1.126, 5-{[(1R,2S)-2-aminocyclohexyl]amino}-3-[(5-chloro-2,6-dimethylpyrimidin-4-yl)amino]pyridine-2-carboxamide], the IC50 lay within 1000 to 10000 nM.

Consider `CNC(=O)C(N)CNc1cnc(C(N)=O)c(Nc2cc(C)cc(C)n2)c1` (centres unmarked) [Example 2.1, 5-{[2-amino-3-(methylamino)-3-oxopropyl]amino}-3-[(4,6-dimethylpyridin-2-yl)amino]pyridine-2-carboxamide], for which the IC50 lay in the range of 100 to 1000 nM.

With `Cc1cc(C)nc(Nc2cc(NC(C)C(N)=O)cnc2C(N)=O)c1` (centres unmarked) [Example 1.39, 5-[(2-amino-1-methyl-2-oxoethyl)amino]-3-[(4,6-dimethylpyridin-2-yl)amino]pyridine-2-carboxamide], the IC50 lay within 10 to 100 nM.

On to `Cc1ccc(-n2ccc(Nc3cc(N[C@@H]4CCCC[C@@H]4N)cnc3C(N)=O)n2)cc1C` [Example 1.66, 5-{[(1R,2S)-2-aminocyclohexyl]amino}-3-{[1-(3,4-dimethylphenyl)-1H-pyrazol-3-yl]amino}pyridine-2-carboxamide], for which the IC50 was under 10 nM.

As for `NC(=O)c1ncc(N[C@@H]2CCCC[C@@H]2N)cc1Nc1cccc(CN2CCOCC2)n1` [Example 1.60, 5-{[(1R,2S)-2-aminocyclohexyl]amino}-3-{[6-(morpholin-4-ylmethyl)pyridin-2-yl]amino}pyridine-2-carboxamide], the IC50 fell in the range of 100 to 1000 nM.

As for `CC(=O)NCC(N)CNc1cnc(C(N)=O)c(Nc2cc(C)cc(C)n2)c1` (centres unmarked) [Example 6.1, 5-{[3-(acetylamino)-2-aminopropyl]amino}-3-[(4,6-dimethylpyridin-2-yl)amino]pyridine-2-carboxamide], the IC50 was 10 to 100 nM.

For the compound `Cc1cc(C(=O)N(C)C)cc(Nc2cc(N[C@@H]3CCCC[C@@H]3N)cnc2C(N)=O)n1` [Example 1.59, 5-{[(1R,2S)-2-aminocyclohexyl]amino}-3-{[4-(dimethylcarbamoyl)-6-methylpyridin-2-yl]amino}pyridine-2-carboxamide], the IC50 was in the range of 10 to 100 nM.

For the compound `Cc1cc(C)nc(Nc2cc(N)cnc2C(N)=O)c1` [Example 9, 5-amino-3-[(4,6-dimethylpyridin-2-yl)amino]pyridine-2-carboxamide], the IC50 lay in the range of 1000 to 10000 nM.

For `Cc1nc(Nc2cc(NC[C@H](C)N)cnc2C(N)=O)ccc1Br` [Example 2.2, 5-{[(2S)-2-aminopropyl]amino}-3-[(5-bromo-6-methylpyridin-2-yl)amino]pyridine-2-carboxamide], the IC50 was under 10 nM.

As to `Cc1cc(C)nc(Nc2cc(N[C@@H]3[C@H](N)CCCC3(F)F)cnc2C(N)=O)c1` [Example 2.5, 5-{[(1R,6R)-6-amino-2,2-difluorocyclohexyl]amino}-3-[(4,6-dimethylpyridin-2-yl)amino]pyridine-2-carboxamide], the IC50 is under 10 nM.

Take `Cc1nc(Nc2cc(N[C@@H]3CCCC[C@@H]3N)cnc2C(N)=O)ccc1-c1ccc(C)c2ncccc12` [Example 3.32, 5-{[(1R,2S)-2-aminocyclohexyl]amino}-3-{[6-methyl-5-(8-methylquinolin-5-yl)pyridin-2-yl]amino}pyridine-2-carboxamide]: the IC50 is under 10 nM.

For the compound `Cc1cc(C)nc(Nc2cc(NC(C(N)=O)C(C)C)cnc2C(N)=O)c1` (centres unmarked) [Example 1.41, 5-[(1-carbamoyl-2-methylpropyl)amino]-3-[(4,6-dimethylpyridin-2-yl)amino]pyridine-2-carboxamide], the IC50 is 10 to 100 nM.

As for `Cc1nc(Nc2cc(N[C@@H]3CCCC[C@@H]3N)cnc2C(N)=O)ccc1-c1cccc2c1CNC2=O` [Example 3.12, 5-{[(1R,2S)-2-aminocyclohexyl]amino}-3-{[6-methyl-5-(1-oxo-2,3-dihydro-1H-isoindol-4-yl)pyridin-2-yl]amino}pyridine-2-carboxamide], the concentration for half-maximal inhibition (IC50) was under 10 nM.

Values taken from patent US9216173B2, “2-Pyridyl carboxamide-containing spleen tyrosine kinase (SYK) inhibitors” (Merck Sharp & Dohme Corp., priority 2011, dated 2015).
